Data from ChEMBL document CHEMBL5154835, “Design, synthesis and biological evaluation of sulfonamides inhibitors of XPO1 displaying activity against multiple myeloma cells” (Eur J Med Chem, 2022).
Calls of active or inactive are those of the source. The rule behind the calls is not given here.

Legend:
H9 = test: Antiproliferative activity against human H9 cells assessed as inhibition of cell growth incubated for 4 hrs by CCK-8 assay; type: functional, cell-based; conditions: H9, 4 h
MM1.S [1] = test: Antiproliferative activity against human MM1.S cells assessed as inhibition of cell growth incubated for 4 hrs by CCK-8 assay; type: functional, cell-based
MM1.S [2] = test: Induction of cell cycle arrest in human MM1.S cells assessed as p53-dependent accumulation of cells in G2 phase at 1000 nM incubated for 48 hrs by propidium iodide staining based flow cytometric analysis (reference value: 18.4%); type: functional
MM1.S [3] = test: Induction of apoptosis in human MM1.S cells assessed as assessed as late apoptotic cells at 1000 nM measured after 48 hrs by annexin V-FITC/PI staining based flow cytometry analysis (Rvb=2.06%); type: functional
[4] = AUC (0 to infinity) in Sprague-Dawley rat at 1 mg/kg, iv measured upto 8 hrs by LC-MS/MS analysis; type: ADME, organism-based; parameters: dose 1 mg/kg, time < 8 hrs, route iv; conditions: in vivo
MM1.S [5] = test: Induction of cell cycle arrest in human MM1.S cells assessed as accumulation at G1 phase at 10000 nM incubated for 48 hrs by propidium iodide staining based flow cytometric analysis (reference value: 59.8%); type: functional
[6] = Antiproliferative activity against human MINO cells assessed as inhibition of cell growth incubated for 4 hrs by CCK-8 assay; type: functional, cell-based
[7] = Antiproliferative activity against human Mutu-1 cells assessed as inhibition of cell growth incubated for 4 hrs by CCK-8 assay; type: functional, cell-based; conditions: Mutu-1, 4 h
[8] = AUC (0 to infinity) in Sprague-Dawley rat at 10 mg/kg, IG measured upto 8 hrs by LC-MS/MS analysis; type: ADME, organism-based; parameters: dose 10 mg/kg, time < 8 hrs, route ig; conditions: in vivo, po
[9] = Half life in Sprague-Dawley rat at 10 mg/kg, IG measured upto 8 hrs by LC-MS/MS analysis; type: ADME, organism-based; conditions: in vivo, po
MM1.S [10] = test: Induction of cell cycle arrest in human MM1.S cells assessed as p53-dependent accumulation of cells in G2 phase at 100 nM incubated for 48 hrs by propidium iodide staining based flow cytometric analysis (reference value: 18.4%); type: functional
[11] = Metabolic stability in rat liver microsomes assessed as compound remaining preincubated for 5 mins measured upto 60 mins in presence of NADPH by LC/MS analysis; type: ADME, Microsome; conditions: time < 65 min, read-out: Stability
MM1.S [12] = test: Induction of cell cycle arrest in human MM1.S cells assessed as p53-dependent accumulation of cells in G2 phase at 5000 nM incubated for 48 hrs by propidium iodide staining based flow cytometric analysis (reference value: 18.4%); type: functional
[13] = Clearance in Sprague-Dawley rat at 10 mg/kg, IG measured upto 8 hrs by LC-MS/MS analysis; type: ADME, organism-based; conditions: in vivo, po
MM1.S [14] = test: Induction of cell cycle arrest in human MM1.S cells assessed as accumulation at S phase at 100 nM incubated for 48 hrs by propidium iodide staining based flow cytometric analysis (reference value: 21.8%); type: functional
MM1.S [15] = test: Induction of cell cycle arrest in human MM1.S cells assessed as accumulation at S phase at 10000 nM incubated for 48 hrs by propidium iodide staining based flow cytometric analysis (reference value: 21.8%); type: functional
MM1.S [16] = test: Induction of apoptosis in human MM1.S cells assessed as assessed as necrotic cells at 10000 nM measured after 48 hrs by annexin V-FITC/PI staining based flow cytometry analysis (Rvb=7.60%); type: functional
MM1.S [17] = test: Induction of apoptosis in human MM1.S cells assessed as assessed as necrotic cells at 100 nM measured after 48 hrs by annexin V-FITC/PI staining based flow cytometry analysis (Rvb=7.60%); type: functional
MM1.S [18] = test: Induction of cell cycle arrest in human MM1.S cells assessed as accumulation at S phase at 1000 nM incubated for 48 hrs by propidium iodide staining based flow cytometric analysis (reference value: 21.8%); type: functional
YT = test: Antiproliferative activity against human YT cells assessed as inhibition of cell growth incubated for 4 hrs by CCK-8 assay; type: functional, cell-based
MM1.S [19] = test: Induction of apoptosis in human MM1.S cells assessed as assessed as late apoptotic cells at 100 nM measured after 48 hrs by annexin V-FITC/PI staining based flow cytometry analysis (Rvb=2.06%); type: functional
[20] = Cmax in Sprague-Dawley rat at 10 mg/kg, IG measured upto 8 hrs by LC-MS/MS analysis; type: ADME, organism-based; parameters: dose 10 mg/kg, time < 8 hrs, route ig; conditions: in vivo, po
MM1.S [21] = test: Induction of apoptosis in human MM1.S cells assessed as assessed as early apoptotic cells at 100 nM measured after 48 hrs by annexin V-FITC/PI staining based flow cytometry analysis (Rvb=4.60%); type: functional
MM1.S [22] = test: Induction of cell cycle arrest in human MM1.S cells assessed as p53-dependent accumulation of cells in G2 phaseat 10000 nM incubated for 48 hrs by propidium iodide staining based flow cytometric analysis (reference value: 18.4%); type: functional
MM1.S [23] = test: Induction of apoptosis in human MM1.S cells assessed as assessed as late apoptotic cells at 10000 nM measured after 48 hrs by annexin V-FITC/PI staining based flow cytometry analysis (Rvb=2.06%); type: functional
[24] = Antiproliferative activity against human Rael cells assessed as inhibition of cell growth incubated for 4 hrs by CCK-8 assay; type: functional, cell-based
MM1.S [25] = test: Induction of cell cycle arrest in human MM1.S cells assessed as accumulation at G1 phase at 100 nM incubated for 48 hrs by propidium iodide staining based flow cytometric analysis (reference value: 59.8%); type: functional
[26] = Tmax in Sprague-Dawley rat at 10 mg/kg, IG measured upto 8 hrs by LC-MS/MS analysis; type: ADME, organism-based; conditions: in vivo, po
[27] = Tmax in Sprague-Dawley rat at 1 mg/kg, iv measured upto 8 hrs by LC-MS/MS analysis; type: ADME, organism-based; conditions: in vivo
[28] = Antiproliferative activity against human JB-6 cells assessed as inhibition of cell growth incubated for 4 hrs by CCK-8 assay; type: functional, cell-based; conditions: JB6, 4 h
MM1.S [29] = test: Induction of apoptosis in human MM1.S cells assessed as assessed as viable cells at 100 nM measured after 48 hrs by annexin V-FITC/PI staining based flow cytometry analysis (Rvb=85.74%); type: functional; conditions: read-out: Activity
MM1.S [30] = test: Induction of cell cycle arrest in human MM1.S cells assessed as accumulation at S phase at 5000 nM incubated for 48 hrs by propidium iodide staining based flow cytometric analysis (reference value: 21.8%); type: functional
MM1.S [31] = test: Induction of cell cycle arrest in human MM1.S cells assessed as accumulation at G1 phase at 1000 nM incubated for 48 hrs by propidium iodide staining based flow cytometric analysis (reference value: 59.8%); type: functional
MM1.S [32] = test: Induction of apoptosis in human MM1.S cells assessed as assessed as viable cells at 10000 nM measured after 48 hrs by annexin V-FITC/PI staining based flow cytometry analysis (Rvb=85.74%); type: functional; conditions: read-out: Activity
MM1.S [33] = test: Induction of apoptosis in human MM1.S cells assessed as assessed as early apoptotic cells at 10000 nM measured after 48 hrs by annexin V-FITC/PI staining based flow cytometry analysis (Rvb=4.60%); type: functional
[34] = Half life in Sprague-Dawley rat at 1 mg/kg, iv measured upto 8 hrs by LC-MS/MS analysis; type: ADME, organism-based; conditions: in vivo
[35] = biological target: Exportin-1 (Homo sapiens) (UniProt O14980); test: Inhibition of XPO1 in human MM1.S cells at 0.1 to 10 uM incubated for 2 hrs by confocal microscopic analysis; type: cell-based; conditions: dose 0.1-10 µM
Sequence of Exportin-1 (Homo sapiens) (O14980 whole entry): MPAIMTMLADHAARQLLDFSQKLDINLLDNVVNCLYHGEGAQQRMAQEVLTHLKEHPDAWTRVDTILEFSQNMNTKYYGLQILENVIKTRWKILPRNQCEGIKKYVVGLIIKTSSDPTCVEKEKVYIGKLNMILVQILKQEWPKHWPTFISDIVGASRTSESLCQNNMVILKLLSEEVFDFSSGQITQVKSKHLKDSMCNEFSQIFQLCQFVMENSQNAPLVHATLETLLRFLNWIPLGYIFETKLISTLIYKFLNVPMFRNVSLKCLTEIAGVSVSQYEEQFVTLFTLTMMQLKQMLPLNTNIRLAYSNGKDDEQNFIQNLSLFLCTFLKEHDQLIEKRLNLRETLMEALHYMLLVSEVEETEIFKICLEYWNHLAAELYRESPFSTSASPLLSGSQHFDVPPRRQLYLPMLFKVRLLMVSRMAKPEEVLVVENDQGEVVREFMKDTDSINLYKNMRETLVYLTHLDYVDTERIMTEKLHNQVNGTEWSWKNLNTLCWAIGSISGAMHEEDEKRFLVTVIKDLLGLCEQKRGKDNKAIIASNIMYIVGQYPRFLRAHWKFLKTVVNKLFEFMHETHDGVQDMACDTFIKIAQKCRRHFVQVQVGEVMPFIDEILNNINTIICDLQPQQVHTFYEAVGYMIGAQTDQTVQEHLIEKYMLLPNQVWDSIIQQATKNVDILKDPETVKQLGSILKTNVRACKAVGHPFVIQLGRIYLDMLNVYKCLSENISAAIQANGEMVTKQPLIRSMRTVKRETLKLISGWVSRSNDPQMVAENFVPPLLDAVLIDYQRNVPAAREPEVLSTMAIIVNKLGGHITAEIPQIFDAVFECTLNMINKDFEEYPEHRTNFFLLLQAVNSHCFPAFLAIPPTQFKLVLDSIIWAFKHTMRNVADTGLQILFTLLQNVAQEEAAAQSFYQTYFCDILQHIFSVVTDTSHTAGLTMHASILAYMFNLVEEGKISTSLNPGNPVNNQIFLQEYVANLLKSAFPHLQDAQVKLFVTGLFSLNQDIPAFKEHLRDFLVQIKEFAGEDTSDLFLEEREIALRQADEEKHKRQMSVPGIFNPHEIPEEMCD

Question: What does the source list for CS(=O)(=O)Nc1ccc(/C(=C\n2cnc(-c3cc(C(F)(F)F)cc(C(F)(F)F)c3)n2)C(N)=O)cc1?
Answer: IC50 (H9): 101 nM; IC50 (MM1.S [1]): 24 nM; Activity (MM1.S [2]): 33.4%; Activity (MM1.S [3]): 20.49%; AUC(0-inf) [4]: 1790 ng·h/mL; Activity (MM1.S [5]): 52.1%; IC50 [6]: 80.2 nM; IC50 [7]: 158 nM; AUC(0-inf) [8]: 6390 ng·h/mL; half-life [9]: 2.12 h; Activity (MM1.S [10]): 21.3%; remaining at 1 h [11]: 85%; Activity (MM1.S [12]): 37.3%; CL/F [13]: 27.3 mL/min/kg; Activity (MM1.S [14]): 15.4%; Activity (MM1.S [15]): 11.5%; Activity (MM1.S [16]): 7.34%; Activity (MM1.S [17]): 6.94%; Activity (MM1.S [18]): 18.3%; IC50 (YT): 75.4 nM; Activity (MM1.S [19]): 6.35%; Cmax [20]: 1390 ng/mL; Activity (MM1.S [21]): 11.27%; Activity (MM1.S [22]): 36.4%; Activity (MM1.S [23]): 37.33%; IC50 [24]: 202 nM; Activity (MM1.S [25]): 63.4%; Tmax [26]: 2.17 h; Tmax [27]: 4.8 min; IC50 [28]: 154 nM; viability at 0.1 µM (MM1.S [29]): 75.4%; Activity (MM1.S [30]): 10.2%; Activity (MM1.S [31]): 48.3%; viability at 10 µM (MM1.S [32]): 28%; Activity (MM1.S [33]): 27.36%; half-life [34]: 2.32 h; inhibition [35]: Active
